Measured values reported in patent US20240376126A1, “PRMT5 INHIBITOR AND THE USE THEREOF” (CYTOSINLAB THERAPEUTICS CO., LTD., priority 2022, published 2024).

Experiments:
[1] = tested on: HCT116 MTAP WT cells; assay: Proliferation inhibition of HCT116 cells in vitro (CellTiter Glo, 6 days); assay type: cell-based; conditions: Homo sapiens, HCT-116, 144 h, read-out: Cell proliferation inhibition rate HCT116 MTAP WT IC50 (nm)
Excerpt: (§1) Biological Test Example 2 Proliferation Inhibition of HCT116 and HCT116 MTAP-KO Cells In Vitro
(§2) HCT116 cell line was purchased from the Chinese Academy of Sciences Cell Bank, and the MTAP gene was knocked out by CRISPR/Cas9 technology to obtain HCT116-MTAP-KO cell line.
(§3) McCoy's 5A medium (Gibco, catalog No. 16600082), fetal bovine serum (Gibco, catalog No. 10099141C), penicillin-streptomycin double antibody (Gibco, catalog No. 15140122), pancreatic enzyme (Gibco, catalog No. 25200056), CellTiter Glo assay kit (Promega, catalog No. G7572), 384-well transparent flat-bottomed black walled cell culture plate (Corning, catalog No. 3764), ultra micro sampler (Tecan, catalog No. D300e), Multimode reader (Biotek, catalog No. SynergyHTX)
(§4) • 1. Cell culture: HCT116 and HCT116-MTAP-KO cells were cultured in McCoy'5A medium+10% fetal bovine serum+1% penicillin-streptomycin double antibody; to ensure that they were always in the logarithmic growth phase and the cell viability greater than 95%. • 2. Compound concentration gradient preparation: The compound to be tested was added to a 384-well plate using an ultra micro sampler, starting from 30 μM (HCT116 cells) or 3 μM (HCT116-MTAP-KO cells), and diluted with DMSO at 3 times for a total of 9 concentrations and set up three duplicate wells. • 3. Treatment of cells with compounds: Trypsin-digested HCT116 or HCT116-MTAP-KO cell suspension was added to the 384-well plates spotted with the compounds to be tested at 40 μL per well, i.e., 100 cells per well, and the final concentration of DMSO was 0.4%. The cell culture plate was incubated at 37° C. in a 5% CO2 incubator for 6 days. • 4. Detection: 20 μL of CellTiter Glo reagent was added to each well of the cell culture plate and incubated at room temperature for 30 minutes. A multimode reader was used to detect the luminescence signal at […]. • 5. Data analysis:
(§5) The data was fitted with GraphPad Prism 8.0 software using a four parameter inhibitor-reaction model to obtain the […] (half inhibitory concentration) of the test compounds.
(§6) The first column represents cell proliferation inhibition rate HCT116 MTAP WT IC50 (nm), and the second column represents cell proliferation inhibition rate HCT116-MTAP null IC50 (nm): […]

[2] = tested on: HCT116-MTAP-KO (MTAP null) cells; assay: Proliferation inhibition of HCT116 MTAP-KO cells in vitro (CellTiter Glo, 6 days); assay type: cell-based; conditions: HCT116-MTAP null, 144 h, read-out: Cell proliferation inhibition rate HCT116-MTAP null IC50 (nm)
Excerpt: as §1, §2, §3, §4, §5, §6

CC(c1ncccn1)N(Cc1nc2cc(C(F)(F)F)ccc2s1)C(=O)c1ccc2nc(N)c3c(c2c1)CCC3 (centres unmarked) [Example 153]
IC50 [1]: 1000 to 10000 nM | IC50 [2]: 100 to 1000 nM

COCC(C1CC1)N(Cc1nc2cc(C(F)(F)F)ccc2s1)C(=O)c1ccc2nc(N)c3c(c2c1)CCC3 (centres unmarked) [Example 154]
IC50 [1]: 1000 to 10000 nM | IC50 [2]: 100 to 1000 nM

CC(c1ncccn1)N(Cc1nc2ccccn2n1)C(=O)c1ccc2nc(N)c3c(c2c1)CCC3 (centres unmarked) [Example 155]
IC50 [1]: 1000 to 10000 nM | IC50 [2]: 100 to 1000 nM

CC(c1ncccn1)N(Cc1cc2n(n1)CCOC2)C(=O)c1ccc2nc(N)c3c(c2c1)CCC3 (centres unmarked) [Example 156]
IC50 [1]: 1000 to 10000 nM | IC50 [2]: 100 to 1000 nM

CC(c1ncccn1)N(Cc1cn2c(n1)COCC2)C(=O)c1ccc2nc(N)c3c(c2c1)CCC3 (centres unmarked) [Example 157]
IC50 [1]: 1000 to 10000 nM | IC50 [2]: 100 to 1000 nM

Cc1cn2c(n1)c(N)nc1cc(F)c(C(=O)N(Cc3cn4ccccc4n3)CC(C)C)cc12 [Example 158]
IC50 [1]: 1000 to 10000 nM | IC50 [2]: 100 to 1000 nM

CCN(Cc1cc2ccccn2n1)C(=O)c1ccc2nc(N)c3cnc(C)n3c2c1 [Example 159]
IC50 [1]: 1000 to 10000 nM | IC50 [2]: 100 to 1000 nM

Cc1ncc2c(N)nc3ccc(C(=O)N(Cc4nc5cnccc5s4)CC(C)C)cc3n12 [Example 160]
IC50 [1]: 1000 to 10000 nM | IC50 [2]: 100 to 1000 nM

Cc1nc(C)n2c1c(N)nc1cc(F)c(C(=O)N(Cc3cn4ccccc4n3)CC(C)C)cc12 [Example 162]
IC50 [1]: 1000 to 10000 nM | IC50 [2]: 100 to 1000 nM

CCN(C(=O)c1cc2c(cc1F)nc(N)c1cnc(C)n12)C(C)c1cn2ccccc2n1 (centres unmarked) [Example 163]
IC50 [1]: 1000 to 10000 nM | IC50 [2]: 100 to 1000 nM

COCCN(Cc1cn2ccccc2n1)C(=O)c1cc2c(cc1C)nc(N)c1cnc(C)n12 [Example 166]
IC50 [1]: 100 to 1000 nM | IC50 [2]: < 100 nM

Cc1nc(C)n2c1c(N)nc1ccc(C(=O)N(C)C3COc4cc(-c5cnn(C(F)(F)F)c5)ccc43)cc12 (centres unmarked) [Example 167]
IC50 [1]: 1000 to 10000 nM | IC50 [2]: 100 to 1000 nM

Cc1cn2c(n1)c(N)nc1ccc(C(=O)N3C(C)COC[C@@H]3c3cn4ccccc4n3)cc12 (some centres unmarked) [Example 168]
IC50 [1]: 1000 to 10000 nM | IC50 [2]: 100 to 1000 nM

Cc1ncc2c(N)nc3cc(F)c(C(=O)N(Cc4cn5ccccc5n4)C45CC(C4)C5)cc3n12 [Example 169]
IC50 [1]: 100 to 1000 nM | IC50 [2]: < 100 nM

Cc1cn2c(n1)c(N)nc1cc(F)c(C(=O)N3C(C)COC[C@@H]3c3cn4cc(C(F)(F)F)ccc4n3)cc12 (some centres unmarked) [Example 170]
IC50 [1]: 100 to 1000 nM | IC50 [2]: < 100 nM

COCCN(C(=O)c1cc2c(cc1F)nc(N)c1cnc(C)n12)C(C)c1cn2ccccc2n1 (centres unmarked) [Example 171]
IC50 [1]: 1000 to 10000 nM | IC50 [2]: 100 to 1000 nM

Cc1ncc2c(N)nc3cc(F)c(C(=O)N4C(C)COC[C@@H]4c4cn5cc(C(F)(F)F)ccc5n4)cc3n12 (some centres unmarked) [Example 172]
IC50 [1]: 100 to 1000 nM | IC50 [2]: < 100 nM

[2H]C([2H])([2H])N(Cc1cn2cc(C(F)(F)F)ccc2n1)C(=O)c1cc2c(cc1F)nc(N)c1cnc(C)n12 [Example 173]
IC50 [1]: 1000 to 10000 nM | IC50 [2]: 100 to 1000 nM

Cc1cn2c(n1)c(N)nc1cc(F)c(C(=O)N3C(C)COC[C@@H]3c3cn4ccccc4n3)cc12 (some centres unmarked) [Example 174]
IC50 [1]: < 100 nM | IC50 [2]: 100 to 1000 nM

Cc1ncc2c(N)nc3cc(F)c(C(=O)N4C(C)COC[C@@H]4c4cn5ccccc5n4)cc3n12 (some centres unmarked) [Example 176]
IC50 [1]: 1000 to 10000 nM | IC50 [2]: 100 to 1000 nM

COC1CC(N(Cc2cn3ccccc3n2)C(=O)c2cc3c(cc2F)nc(N)c2cnc(C)n23)C1 (centres unmarked) [Example 177]
IC50 [1]: 1000 to 10000 nM | IC50 [2]: 100 to 1000 nM

CCN(Cc1cn2cc(C(F)(F)F)ccc2n1)C(=O)c1cc2c(cc1F)nc(N)c1cnc(C)n12 [Example 178]
IC50 [1]: 1000 to 10000 nM | IC50 [2]: 100 to 1000 nM

Cc1ncc2c(N)nc3cc(F)c(C(=O)N(Cc4cn5ccccc5n4)C4CCC4)cc3n12 [Example 179]
IC50 [1]: 1000 to 10000 nM | IC50 [2]: < 100 nM

Cc1ncc2c(N)nc3cc(F)c(C(=O)N(Cc4cn5ccccc5n4)CC(F)(F)F)cc3n12 [Example 180]
IC50 [1]: 1000 to 10000 nM | IC50 [2]: 100 to 1000 nM

Cc1ncc2c(N)nc3cc(F)c(C(=O)N(Cc4cn5ccccc5n4)c4cnn(C)c4)cc3n12 [Example 181]
IC50 [1]: 1000 to 10000 nM | IC50 [2]: 100 to 1000 nM
